Results taken from patent US20220401564A1 (DANA-FARBER CANCER INSTITUTE, INC., priority 2019, published 2022).
“Also recorded” adds a separate entry of the source.

Molecular target: T1, HDAC6 (Homo sapiens, UniProt Q9UBN7)
T1 sequence (Q9UBN7 1-1215): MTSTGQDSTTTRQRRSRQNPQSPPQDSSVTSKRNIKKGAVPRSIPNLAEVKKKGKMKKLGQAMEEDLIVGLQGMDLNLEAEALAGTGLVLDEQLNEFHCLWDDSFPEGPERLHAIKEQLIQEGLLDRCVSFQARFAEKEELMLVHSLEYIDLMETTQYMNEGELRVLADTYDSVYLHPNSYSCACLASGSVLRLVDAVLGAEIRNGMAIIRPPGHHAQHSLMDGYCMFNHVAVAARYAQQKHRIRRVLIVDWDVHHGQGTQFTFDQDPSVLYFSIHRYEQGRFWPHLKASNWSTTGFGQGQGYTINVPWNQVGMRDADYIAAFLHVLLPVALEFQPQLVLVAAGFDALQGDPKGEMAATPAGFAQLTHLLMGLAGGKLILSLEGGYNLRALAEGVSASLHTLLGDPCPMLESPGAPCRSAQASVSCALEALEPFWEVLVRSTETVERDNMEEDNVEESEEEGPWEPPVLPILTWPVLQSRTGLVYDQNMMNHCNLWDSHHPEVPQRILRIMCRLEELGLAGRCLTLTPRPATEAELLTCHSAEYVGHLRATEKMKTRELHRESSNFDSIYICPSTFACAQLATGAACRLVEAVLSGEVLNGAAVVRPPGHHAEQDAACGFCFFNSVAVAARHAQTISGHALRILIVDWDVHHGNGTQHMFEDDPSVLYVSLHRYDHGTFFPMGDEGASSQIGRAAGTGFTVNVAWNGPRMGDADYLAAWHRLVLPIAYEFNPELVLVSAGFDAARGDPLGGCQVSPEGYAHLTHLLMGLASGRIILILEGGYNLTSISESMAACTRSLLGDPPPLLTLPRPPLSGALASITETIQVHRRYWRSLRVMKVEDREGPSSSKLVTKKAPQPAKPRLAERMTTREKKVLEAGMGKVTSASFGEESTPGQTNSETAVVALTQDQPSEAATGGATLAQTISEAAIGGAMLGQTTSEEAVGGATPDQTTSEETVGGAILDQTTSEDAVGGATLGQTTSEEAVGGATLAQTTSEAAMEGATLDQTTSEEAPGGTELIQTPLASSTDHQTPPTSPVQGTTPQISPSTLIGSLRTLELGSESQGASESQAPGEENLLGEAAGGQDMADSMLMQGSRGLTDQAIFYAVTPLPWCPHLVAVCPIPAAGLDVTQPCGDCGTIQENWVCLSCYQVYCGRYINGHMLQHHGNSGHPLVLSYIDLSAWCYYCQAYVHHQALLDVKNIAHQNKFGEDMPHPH
Assay: Change in cellular protein abundance (TMT proteomics) in Kelly cells
Assay type: cell-based
Design: relative change in relative protein abundance with treatment of Kelly cells; endogenous in cells; host or cells: Kelly cells
Settings: FIG. 3A

SMILES: Cc1ncsc1-c1ccc(CNC(=O)[C@@H]2C[C@@H](O)CN2C(=O)[C@@H](NC(=O)C2(F)CC2)C(C)(C)C)c(OCCCCCN(CCc2c[nH]c3ccccc23)Cc2ccc(/C=C/C(=O)NO)cc2)c1 [Compound 7, (2S,4R)—N-(2-((5-((2-(1H-indol-3-yl)ethyl)(4-((E)-3-(hydroxyamino)-3-oxoprop-1-en-1-yl)benzyl)amino)pentyl)oxy)-4-(4-methylthiazol-5-yl)benzyl)-1-((S)-2-(1-fluorocyclopropane-1-carboxamido)-3,3-dimethylbutanoyl)-4-hydroxypyrrolidine-2-carboxamide]
- HDAC6 protein levels, relative protein abundance compared to DMSO control: promote degradation; also recorded: significant and selective reduction
